We go through 25 molecules from patent publication US20090018166A1, “New Pyridine Analogues X 161” (ASTRAZENECA AB, priority 2007, published 2009).

The target in one assay is T1, P2Y12 receptor (Homo sapiens, UniProt Q9H244).
T1 construct: expressed in transfected cells; host or cells: CHO cells (membranes)
T1 sequence (Q9H244 whole entry): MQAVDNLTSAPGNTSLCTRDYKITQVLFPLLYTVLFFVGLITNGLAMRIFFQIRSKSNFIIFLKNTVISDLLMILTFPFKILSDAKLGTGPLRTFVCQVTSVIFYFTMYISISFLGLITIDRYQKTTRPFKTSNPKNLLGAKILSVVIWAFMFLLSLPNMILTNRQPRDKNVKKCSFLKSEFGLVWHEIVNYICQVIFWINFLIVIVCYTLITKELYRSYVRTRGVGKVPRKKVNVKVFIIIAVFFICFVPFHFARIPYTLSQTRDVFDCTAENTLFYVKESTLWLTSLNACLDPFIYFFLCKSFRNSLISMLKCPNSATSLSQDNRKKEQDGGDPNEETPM
Nature of the assay: Functional inhibition of 2-Me-S-ADP induced P2Y12 signalling (35S-GTPγS binding, membranes from P2Y12 transfected CHO-cells). The format is biochemical. The following applies: 35S-GTPγS, EC80 of 2-methyl-thio-adenosine diphosphate, P2Y12 CHO membranes; value given in each example; read-out: GTPγS(IC50 μM). The method, then: Functional inhibition of- the P2Y12 receptor can be measured by in vitro assays using cell membranes from P2Y12 transfected CHO-cells, the methodology is indicated below.
Functional inhibition of 2-Me-S-ADP induced P2Y12 signalling: 5 μg of membranes were diluted in 200 μl of 200 mM NaCl, 1 mM MgCl2, 50 mM HEPES (pH 7.4), 0.01% BSA, 30 μg/ml saponin and 10 μM GDP. To this was added an EC80 concentration of agonist (2-methyl-thio-adenosine diphosphate), the required concentration of test compound and 0.1 μCi ^35S-GTPγS. The reaction was allowed to proceed at 30° C. for 45 min. Samples were then transferred on to GF/B filters using a cell harvester and washed with wash buffer (50 mM Tris (pH 7.4), 5 mM MgCl2, 50 mM NaCl). Filters were then covered with scintilant and counted for the amount of ^35S-GTPγS retained by the filter. Maximum activity was that determined in the presence of the agonist and minimum activity in the absence of the agonist following subtraction of the value determined for non-specific activity. The effect of compounds at various concentrations was plotted according to the equation
y=A+((B−A)/(1+((C/x)̂D)))
and IC50 estimated where A is the bottom plateau of the curve i.e. the final minimum y value B is the top of the plateau of the curve i.e. the final maximum y value C is the x value at the middle of the curve. This represents the log EC50 value when A+B=100 D is the slope factor. x is the original known x values. Y is the original known y values.
Broadly, the IC50 is the midpoint of a concentration-inhibition curve. For “1-{3-chloro-6-[(2-oxopyrrolidin-1-yl)methyl]-5-pentanoylpyridin-2-yl}-N-[(2,4-difluorobenzyl)sulfonyl]-N-methylpiperidine-4-carboxamide [Example 71]”, the half-maximal inhibitory concentration (IC50) was 0.903 µM. Same read-out and setting: the value for `CC(=O)c1cc(C#N)c(N2CCC(C(=O)NS(=O)(=O)Cc3ccccc3)CC2)nc1CN1CCCC1=O` [Example 1, 1-{5-Acetyl-3-cyano-6-[(2-oxopyrrolidin-1-yl)methyl]pyridin-2-yl}-N-(benzylsulfonyl)piperidine-4-carboxamide] was 0.283 µM; that for `CCCC(=O)c1cc(C#N)c(N2CCC(C(=O)NS(=O)(=O)Cc3ccccc3)CC2)nc1CN1CCCC1=O` [Example 2, N-(Benzylsulfonyl)-1-{5-butyryl-3-cyano-6-[(2-oxopyrrolidin-1-yl)methyl]pyridin-2-yl}piperidine-4-carboxamide] was 0.022 µM; that for `CC(=O)c1cc(C#N)c(N2CCC(C(=O)NS(=O)(=O)Cc3ccccc3)CC2)nc1CN1CCCCC1=O` [Example 3, 1-{5-Acetyl-3-cyano-6-[(2-oxopiperidin-1-yl)methyl]pyridin-2-yl}-N-(benzylsulfonyl)piperidine-4-carboxamide] was 1.65 µM.

For `CCCC(=O)c1cc(C#N)c(N2CCC(C(=O)NS(=O)(=O)Cc3ccc(C)cc3)CC2)nc1CN1CCCCC1=O` [Example 4, 1-{5-Butyryl-3-cyano-6-[(2-oxopiperidin-1-yl)methyl]pyridin-2-yl}-N-[(4-methylbenzyl)sulfonyl]piperidine-4-carboxamide], the IC50 was found to be 0.021 µM. `CCCC(=O)c1cc(C#N)c(N2CCC(C(=O)NS(=O)(=O)Cc3ccc(C)cc3)CC2)nc1CN1CCCC1=O` [Example 5, 1-{5-butyryl-3-cyano-6-[(2-oxopyrrolidin-1-yl)methyl]pyridin-2-yl}-N-[(4-methylbenzyl)sulfonyl]piperidine-4-carboxamide]: the concentration for half-maximal inhibition (IC50) was determined as 0.009 µM. The same measure, in the same setting: in the case of `CCCC(=O)c1cc(C#N)c(N2CCC(C(=O)NS(=O)(=O)Cc3ccc(F)cc3F)CC2)nc1CN1CCCC1=O` [Example 6, 1-{5-butyryl-3-cyano-6-[(2-oxopyrrolidin-1-yl)methyl]pyridin-2-yl}-N-[(2,4-difluorobenzyl)sulfonyl]piperidine-4-carboxamide] it was 0.0099 µM. On the same count and under the same terms, the value for `CCCC(=O)c1cc(C#N)c(N2CCC(C(=O)NS(=O)(=O)CC3CCCC3)CC2)nc1CN1CCCC1=O` [Example 7, 1-{5-Butyryl-3-cyano-6-[(2-oxopyrrolidin-1-yl)methyl]pyridin-2-yl}-N-[(cyclopentylmethyl)sulfonyl]piperidine-4-carboxamide] was 0.028 µM; that for `N#Cc1cc(C(=O)C2CC2)c(CN2CCCC2=O)nc1N1CCC(C(=O)NS(=O)(=O)Cc2ccccc2)CC1` [Example 8, N-(benzylsulfonyl)-1-{3-cyano-5-(cyclopropylcarbonyl)-6-[(2-oxopyrrolidin-1-yl)methyl]pyridin-2-yl}piperidine-4-carboxamide] was 0.032 µM. Same read-out and setting: in the case of `N#Cc1cc(C(=O)C2CC2)c(CN2CCCC2=O)nc1N1CCC(C(=O)NS(=O)(=O)CC2CCCC2)CC1` [Example 9, 1-{3-Cyano-5-(cyclopropylcarbonyl)-6-[(2-oxopyrrolidin-1-yl)methyl]pyridin-2-yl}-N-[(cyclopentylmethyl)sulfonyl]piperidine-4-carboxamide] it was 0.058 µM; in that of `CCC(=O)c1cc(C#N)c(N2CCC(C(=O)NS(=O)(=O)Cc3ccccc3)CC2)nc1CN1CCCC1=O` [Example 10, N-(benzylsulfonyl)-1-{3-cyano-6-[(2-oxopyrrolidin-1-yl)methyl]-5-propionylpyridin-2-yl}piperidine-4-carboxamide], 0.098 µM; in that of `CCC(=O)c1cc(C#N)c(N2CCC(C(=O)NS(=O)(=O)Cc3ccc(C)cc3)CC2)nc1CN1CCCC1=O` [Example 11, 1-{3-cyano-6-[(2-oxopyrrolidin-1-yl)methyl]-5-propionylpyridin-2-yl}-N-[(4-methylbenzyl)sulfonyl]piperidine-4-carboxamide], 0.037 µM. As to `CCC(=O)c1cc(C#N)c(N2CCC(C(=O)NS(=O)(=O)CC3CCCC3)CC2)nc1CN1CCCC1=O` [Example 12, 1-{3-Cyano-6-[(2-oxopyrrolidin-1-yl)methyl]-5-propionylpyridin-2-yl}-N-[(cyclopentylmethyl)sulfonyl]piperidine-4-carboxamide], the IC50 is 0.328 µM. Same read-out and setting: in the case of `CN(c1ccccc1)S(=O)(=O)NC(=O)C1CCN(c2nc(CN3CCCCC3=O)c(C(=O)C3CC3)cc2C#N)CC1` [Example 13, 1-{3-Cyano-5-(cyclopropylcarbonyl)-6-[(2-oxopiperidin-1-yl)methyl]pyridin-2-yl}-N-{[methyl(phenyl)amino]sulfonyl}piperidine-4-carboxamide] it was 0.153 µM; in that of `N#Cc1cc(C(=O)C2CC2)c(CN2CCCCC2=O)nc1N1CCC(C(=O)NS(=O)(=O)CC2CCCC2)CC1` [Example 14, 1-{3-Cyano-5-(cyclopropylcarbonyl)-6-[(2-oxopiperidin-1-yl)methyl]pyridin-2-yl}-N-[(cyclopentylmethyl)sulfonyl]piperidine-4-carboxamide], 0.461 µM; in that of `CC(C)C(=O)c1cc(C#N)c(N2CCC(C(=O)NS(=O)(=O)Cc3ccccc3)CC2)nc1CN1CCCC1=O` [Example 15, N-(Benzylsulfonyl)-1-{3-cyano-5-isobutyryl-6-[(2-oxopyrrolidin-1-yl)methyl]pyridin-2-yl}piperidine-4-carboxamide], 0.106 µM. Regarding `CC(C)C(=O)c1cc(C#N)c(N2CCC(C(=O)NS(=O)(=O)CC3CCCC3)CC2)nc1CN1CCCC1=O` [Example 16, 1-{3-Cyano-5-isobutyryl-6-[(2-oxopyrrolidin-1-yl)methyl]pyridin-2-yl}-N-[(cyclopentylmethyl)sulfonyl]piperidine-4-carboxamide], the IC50 amounted to 0.396 µM. The same measure, in the same setting: the value for `CCCCC(=O)c1cc(C#N)c(N2CCC(C(=O)NS(=O)(=O)CC3CCCC3)CC2)nc1CN1CCCC1=O` [Example 17, 1-{3-Cyano-6-[(2-oxopyrrolidin-1-yl)methyl]-5-pentanoylpyridin-2-yl}-N-[(cyclopentylmethyl)sulfonyl]piperidine-4-carboxamide] was 0.029 µM; that for `CCCCC(=O)c1cc(C#N)c(N2CCC(C(=O)NS(=O)(=O)Cc3ccccc3)CC2)nc1CN1CCCC1=O` [Example 18, N-(Benzylsulfonyl)-1-{3-cyano-6-[(2-oxopyrrolidin-1-yl)methyl]-5-pentanoylpyridin-2-yl}piperidine-4-carboxamide] was 0.013 µM; that for `CCCCC(=O)c1cc(C#N)c(N2CCC(C(=O)NS(=O)(=O)Cc3ccc(C)cc3)CC2)nc1CN1CCCC1=O` [Example 19, 1-{3-Cyano-6-[(2-oxopyrrolidin-1-yl)methyl]-5-pentanoylpyridin-2-yl}-N-[(4-methylbenzyl)sulfonyl]piperidine-4-carboxamide] was 0.0086 µM. With `CCCCC(=O)c1cc(C#N)c(N2CCC(C(=O)NS(=O)(=O)Cc3ccc(F)cc3F)CC2)nc1CN1CCCC1=O` [Example 20, 1-{3-Cyano-6-[(2-oxopyrrolidin-1-yl)methyl]-5-pentanoylpyridin-2-yl}-N-[(2,4-difluorobenzyl)sulfonyl]piperidine-4-carboxamide], the 50% inhibitory concentration (IC50) turned out to be 0.013 µM. For `CCCCC(=O)c1cc(C#N)c(N2CCC(C(=O)NS(=O)(=O)N(C)c3ccc(F)cc3)CC2)nc1CN1CCCC1=O` [Example 21, 1-{3-Cyano-6-[(2-oxopyrrolidin-1-yl)methyl]-5-pentanoylpyridin-2-yl}-N-{[(4-fluorophenyl)(methyl)amino]sulfonyl}piperidine-4-carboxamide], the IC50 turned out to be 0.023 µM. The same measure, in the same setting: in the case of `CCCCC(=O)c1cc(C#N)c(N2CCC(C(=O)NS(=O)(=O)N(C)c3ccccc3)CC2)nc1CN1CCCC1=O` [Example 22, 1-{3-Cyano-6-[(2-oxopyrrolidin-1-yl)methyl]-5-pentanoylpyridin-2-yl}-N-{[methyl(phenyl)amino]sulfonyl}piperidine-4-carboxamide] it was 0.017 µM; in that of `CN(c1ccccc1)S(=O)(=O)NC(=O)C1CCN(c2nc(CN3CCCC3=O)c(C(=O)C3CC3)cc2C#N)CC1` [Example 23, 1-{3-Cyano-5-(cyclopropylcarbonyl)-6-[(2-oxopyrrolidin-1-yl)methyl]pyridin-2-yl}-N-{[methyl(phenyl)amino]sulfonyl}piperidine-4-carboxamide], 0.042 µM. Regarding `N#Cc1cc(C(=O)C2CC2)c(CN2CCCC2=O)nc1N1CCC(C(=O)NS(=O)(=O)CC2CCC2)CC1` [Example 24, 1-{3-Cyano-5-(cyclopropylcarbonyl)-6-[(2-oxopyrrolidin-1-yl)methyl]pyridin-2-yl}-N-[(cyclobutylmethyl)sulfonyl]piperidine-4-carboxamide], the IC50 is 0.428 µM.

The same assay, now with this note: functional inhibition of 2-Me-S-ADP induced P2Y12 signalling assay; EC80 of agonist; summary table in Pharmacological Data; read-out: IC50.
As to `CCCC(=O)c1cc(C#N)c(N2CCC(C(=O)NS(=O)(=O)Cc3ccc(C)cc3)CC2)nc1CN1CCCCC1=O` [Example 4, 1-{5-Butyryl-3-cyano-6-[(2-oxopiperidin-1-yl)methyl]pyridin-2-yl}-N-[(4-methylbenzyl)sulfonyl]piperidine-4-carboxamide], the IC50 worked out at 0.28 µM. `CCC(=O)c1cc(C#N)c(N2CCC(C(=O)NS(=O)(=O)CC3CCCC3)CC2)nc1CN1CCCC1=O` [Example 12, 1-{3-Cyano-6-[(2-oxopyrrolidin-1-yl)methyl]-5-propionylpyridin-2-yl}-N-[(cyclopentylmethyl)sulfonyl]piperidine-4-carboxamide]: the IC50 turned out to be 0.13 µM.
